{"source": "patent US10822448B2", "about": "“Dynamic urea bonds with fast hydrolytic kinetics for polymers” (THE BOARD OF TRUSTEES OF THE UNIVERSITY OF ILLINOIS, priority 2016, dated 2020)", "key": {"[1]": {"assay": "Equilibrium (binding) constant Keq of aryl hindered ureas by 1H NMR amine exchange in d-chloroform", "format": "physicochemical", "details": "room temperature", "description": "(§1) We designed a set of aryl ureas with distinguished electronic effect on the conjugated phenyl ring (Table 1) and the corresponding Keq were studied by ^1H NMR through exchanging of the urea with a set of bulky amines in d-chloroform. The equilibrium constant of the aryl urea bond increases as the bulkiness of the substitution on the amine decreases. […] The dissociation constant k−1 was measured by exchange study of the ureas with another amine and calculated through linear regression. Remarkably, the amine exchange of the tBEU could reach equilibrium within 20 minutes at room temperature in d-chloroform. The k−1 of tBEU with aryl substitution is two orders of magnitudes larger than the reported aliphatic urea (Table 1) and among the fastest dynamic chemistries reported so far. […] The substituent on the aryl group can remotely affect the HUB through electronic effects, thus offering an extra tunability on the Keq and k−1 of the bond, which is unprecedented in hindered urea chemistry. The large value of Keq also makes it possible to prepare large molecular weight aromatic hindered urea materials with quantitative conversion.\nWe designed a set of aryl ureas with distinguished electronic effect on the conjugated phenyl ring (Table 1) and the corresponding Keq were studied by ^1H NMR through exchanging of the urea with a set of bulky amines in d-chloroform. The equilibrium constant of the aryl urea bond increases as the bulkiness of the substitution on amine increases. […] The dissociation constant k−1 was measured by exchanging of the ureas with another amine and calculated through linear regression. […] In addition, the calculated k1 is larger than 10^5 M^−1·h^−1 indicating the urea formation can be completed within seconds upon mixing. […] The large value of Keq make it possible to prepare chemically stable aromatic hindered urea materials with quantitative conversion.\nThe binding constant (Keq) was measured through indirect method used previously. […] Briefly, the of Keq of the equilibrium was measured in d-chloroform and the Keq of each aryl urea was calculated accordingly. […]"}, "[2]": {"assay": "Dissociation constant k−1 of hindered ureas by amine exchange experiment (1H NMR, d-chloroform)", "format": "physicochemical", "details": "room temperature", "description": "as §1\nThe dissociation constant (k−1) of corresponding hinder ureas were determined through exchange experiment. Briefly, a d-chloroform (550 μL) solution of tBEU (0.050 mmol, ˜12 mg) was mixed with N-methyl-t-butyl-amine (1 eq). Then the mixture was monitored with ^1H NMR. The ratio of the two ureas was quantified by integration of the methyl/methylene hydrogen adjacent to the nitrogen atom. Linear regression of ln\n[formula] ˜t giving the slope as the dissociation constant (k−1).\nThe method for tBEU was used except that 10 equivalent t-butylamine or n-butyl amine was used.\nThe dynamic behavior of the aromatic urea was then investigated by exchanging the tBEU with methyl-t-butylamine and the relative concentration of all species were monitored by ^1H NMR. […] In contrast, the aliphatic tBEU requires several days to reach equilibrium at 37° C. Through linear regression of the exchange component, the dissociate rate of the ureas were determined to be 5-12 h^−1 at room temperature, which is two order of magnitude higher than the aliphatic counterpart. […] SeeYing, H.; Zhang, Y.; Cheng, J. Nat. Commun. 2014, 5, 3218, which is incorporated by reference herein in its entirety."}, "[3]": {"assay": "HPLC analysis of Ph-tBEU hydrolysis kinetics in 1:1 DMSO-aqueous buffer at various pH", "format": "physicochemical", "description": "FIGS. 1A to 1C depict the hydrolysis of phenyl-N-tetrabutyl-N-ethyl urea (Ph-tBEU) in 1:1 DMSO-aqueous buffer at various pH conditions at 37° C. as analyzed by HPLC. […] The dotted line marks the measured k−1 of the Ph-tBEU under the same condition through exchange with 10 equivalents of t-butyl amine.\nThe hydrolysis of aryl tBEU under different pH conditions was then studied in 1:1 DMSO-aqueous buffer solution at 23° C. […] Kinetic analysis of the hydrolytic kinetics confirmed that the overall urea degradation rate is determined by the urea dissociation and can be expressed as\nHPLC Analysis of pH-tBEU Hydrolysis Kinetics in 50:50 DMSO-H2O at 37° C.\nPh-tBEU stock solution was prepared in DMSO as 2 mg/mL. The solution was diluted with 1:1 DMSO/buffer to 20 μg/mL ([…]) and incubated at 37° C. At specified time, the solution was analyzed by HPLC to quantify the remaining tBEU content by standard calibration curve (λabs=264 nm).\nThe standard sample of Ph-tBEU was prepared by diluting the stock solution with acetonitrile to a 2-fold serial dilution and analyzed instantly after preparation. The pH 1, 7, 10 buffers were prepared by adding acid/base to 1*PBS solution. pH 4 buffer was prepared by citric acid-Na2HPO4 (0.1 M). The pH of all the buffers were confirmed by pH meter prior to conducting the experiments."}, "[4]": {"details": "aliphatic HUB, adapted from Ying et al. Nat. Commun. 2014; cited from earlier work"}, "[5]": {"details": "cited from earlier work"}}, "note": "Like-named read-outs stand apart in the source and are kept apart here."}
{"smiles": "CCN(C(=O)Nc1ccc(OC)cc1)C(C)(C)C", "note": "[compound 1]", "values": [{"measurement": "Keq", "setting": "[1]", "value": 81000, "unit": "M⁻¹"}, {"measurement": "k1 (calculated as Keq × k−1)", "setting": "[2]", "value": 250, "unit": "M⁻¹ s⁻¹"}, {"measurement": "k−1 (dissociation rate)", "setting": "[2]", "value": 11.2, "unit": "h⁻¹"}]}
{"smiles": "CCN(C(=O)Nc1ccccc1)C(C)(C)C", "note": "[compound 2, phenyl-N-tetrabutyl-N-ethyl urea]", "values": [{"measurement": "Keq", "setting": "[1]", "value": 360000, "unit": "M⁻¹"}, {"measurement": "k1 (calculated as Keq × k−1)", "setting": "[2]", "value": 889, "unit": "M⁻¹ s⁻¹"}, {"measurement": "k−1 (dissociation rate)", "setting": "[2]", "value": 8.9, "unit": "h⁻¹"}, {"measurement": "apparent hydrolysis constant kobs", "setting": "[3]; 23° C. as printed", "value": 0.17, "unit": "h⁻¹"}, {"measurement": "pH dependence of observed hydrolysis constant kobs", "setting": "[3]; pH ranging from 3-11", "value": "independent of pH"}]}
{"smiles": "CCN(C(=O)Nc1ccc([N+](=O)[O-])cc1)C(C)(C)C", "note": "[compound 3]", "values": [{"measurement": "Keq", "setting": "[1]", "value": "6.8e+06", "unit": "M⁻¹"}, {"measurement": "k1 (calculated as Keq × k−1)", "setting": "[2]", "value": 10800, "unit": "M⁻¹ s⁻¹"}, {"measurement": "k−1 (dissociation rate)", "setting": "[2]", "value": 5.7, "unit": "h⁻¹"}]}
{"smiles": "C=C(C)C(=O)OCCNC(=O)N(CC)C(C)(C)C", "note": "[compound 4]", "values": [{"measurement": "k1 (calculated as Keq × k−1)", "setting": "[2]", "value": 9.17, "unit": "M⁻¹ s⁻¹"}, {"measurement": "Keq", "setting": "[4]", "value": 790000, "unit": "M⁻¹"}, {"measurement": "time for exchange to reach equilibrium", "setting": "[5]; aliphatic tBEU, 37° C.", "value": "several days"}, {"measurement": "k−1 (dissociation rate)", "setting": "[5]; reported aliphatic urea", "value": 0.042, "unit": "h⁻¹"}]}
